Results on eight compounds are retold here after ChEMBL document CHEMBL4837228, “Generation and Biological Evaluation of Degraded Derivatives of the Three E/Z-Isomers of Yaku'amide B” (2021).

The assay concerns MCF7. Nature of the assay: Growth inhibition of human MCF7 cells for 48 hrs by sulforhodamine B assay. It is filed as functional. For orientation: In SRB staining, fixed cells bind dye roughly in proportion to their protein.

As usually defined, the GI50 is the concentration giving 50% growth inhibition. Read a high GI50 as less potent growth inhibition. `CC/C(C)=C(\NC(=O)[C@H](C)NC(=O)/C(NC(=O)[C@@H](NC(=O)C(C)(C)C(=O)[C@@H](C)CC(C)C)[C@](C)(O)CC)=C(/C)CC)C(=O)N[C@@H](C(=O)N[C@@H](C(=O)N[C@@H](C(=O)N[C@H](C(=O)N/C(C(=O)N[C@H](C)C(=O)N[C@@H](C(=O)N[C@H](C(=O)NC(C(=O)N[C@H](CN(C)C)C(C)C)=C(C)C)C(C)C)C(C)C)=C(/C)CC)C(C)(C)O)C(C)(C)O)[C@@H](C)CC)C(C)C`: it took 24.6 nM to inhibit growth by half (GI50).

Compound `CC/C(C)=C(\NC(=O)CNC(=O)C(C)(C)C(=O)[C@@H](C)CC(C)C)C(=O)N[C@@H](C)C(=O)N/C(C(=O)N[C@@H](C(=O)N[C@@H](C(=O)N[C@@H](C(=O)NCC(=O)N/C(C(=O)N[C@H](C)C(=O)N[C@@H](C(=O)N[C@H](C(=O)NC(C(=O)N[C@H](CN(C)C)C(C)C)=C(C)C)C(C)C)C(C)C)=C(\C)CC)C(C)(C)O)[C@@H](C)CC)C(C)C)=C(/C)CC` registered a GI50 of 304 nM.

For the compound `CC/C(C)=C(\NC(=O)[C@@H](NC(=O)[C@H](NC(=O)[C@H](NC(=O)[C@H](NC(=O)/C(NC(=O)[C@H](C)NC(=O)/C(NC(=O)CNC(=O)C(C)(C)C(=O)[C@@H](C)CC(C)C)=C(/C)CC)=C(/C)CC)C(C)C)[C@@H](C)CC)C(C)(C)O)C(C)(C)O)C(=O)N[C@H](C)C(=O)N[C@@H](C(=O)N[C@H](C(=O)NC(C(=O)N[C@H](CN(C)C)C(C)C)=C(C)C)C(C)C)C(C)C`, it took 28.2 nM to inhibit growth by half (GI50).

As to `CC/C(C)=C(\NC(=O)[C@@H](NC(=O)[C@H](NC(=O)[C@H](NC(=O)[C@H](NC(=O)/C(NC(=O)[C@H](C)NC(=O)/C(NC(=O)[C@@H](NC(=O)C(C)(C)C(=O)[C@@H](C)CC(C)C)[C@](C)(O)CC)=C(\C)CC)=C(/C)CC)C(C)C)[C@@H](C)CC)C(C)(C)O)C(C)(C)O)C(=O)N[C@H](C)C(=O)N[C@@H](C(=O)N[C@H](C(=O)NC(C(=O)N[C@H](CN(C)C)C(C)C)=C(C)C)C(C)C)C(C)C`, growth was halved (GI50) at 18.2 nM.

In turn, `CC/C(C)=C(\NC(=O)[C@@H](NC(=O)[C@H](NC(=O)[C@H](NC(=O)[C@H](NC(=O)/C(NC(=O)[C@H](C)NC(=O)/C(NC(=O)[C@@H](NC(=O)C(C)(C)C(=O)[C@@H](C)CC(C)C)[C@](C)(O)CC)=C(/C)CC)=C(/C)CC)C(C)C)[C@@H](C)CC)C(C)(C)O)C(C)(C)O)C(=O)N[C@H](C)C(=O)N[C@@H](C(=O)N[C@H](C(=O)NC(C(=O)N[C@H](CN(C)C)C(C)C)=C(C)C)C(C)C)C(C)C` showed a concentration for 50% growth inhibition (GI50) of 25.4 nM.

As for `CC/C(C)=C(\NC(=O)CNC(=O)C(C)(C)C(=O)[C@@H](C)CC(C)C)C(=O)N[C@@H](C)C(=O)N/C(C(=O)N[C@@H](C(=O)N[C@@H](C(=O)N[C@@H](C(=O)N[C@H](C(=O)N/C(C(=O)N[C@H](C)C(=O)N[C@@H](C(=O)N[C@H](C(=O)NC(C(=O)N[C@H](CN(C)C)C(C)C)=C(C)C)C(C)C)C(C)C)=C(\C)CC)C(C)(C)O)C(C)(C)O)[C@@H](C)CC)C(C)C)=C(/C)CC`, the GI50 is 26.8 nM.

In turn, `CC/C(C)=C(\NC(=O)[C@H](C)NC(=O)/C(NC(=O)[C@@H](NC(=O)C(C)(C)C(=O)[C@@H](C)CC(C)C)[C@](C)(O)CC)=C(\C)CC)C(=O)N[C@@H](C(=O)N[C@@H](C(=O)N[C@@H](C(=O)N[C@H](C(=O)N/C(C(=O)N[C@H](C)C(=O)N[C@@H](C(=O)N[C@H](C(=O)NC(C(=O)N[C@H](CN(C)C)C(C)C)=C(C)C)C(C)C)C(C)C)=C(\C)CC)C(C)(C)O)C(C)(C)O)[C@@H](C)CC)C(C)C` gave a GI50 of 57.4 nM.

`CC/C(C)=C(\NC(=O)[C@H](C)NC(=O)/C(NC(=O)CNC(=O)C(C)(C)C(=O)[C@@H](C)CC(C)C)=C(/C)CC)C(=O)N[C@@H](C(=O)N[C@@H](C(=O)N[C@@H](C(=O)N[C@H](C(=O)N/C(C(=O)N[C@H](C)C(=O)N[C@@H](C(=O)N[C@H](C(=O)NC(C(=O)N[C@H](CN(C)C)C(C)C)=C(C)C)C(C)C)C(C)C)=C(/C)CC)C(C)(C)O)C(C)(C)O)[C@@H](C)CC)C(C)C` came in with a 50% growth inhibitory concentration (GI50) of 47.7 nM.
